In publication PMC9646747, “An allosteric modulator activates BK channels by perturbing coupling between Ca^2+ binding and pore opening” (Nature Communications, 2022):

Target: T1, BK channel (Slo1, mslo1 mbr5 splice variant) (Mus musculus, UniProt Q08460)
T1 construct: gene Kcnma1; mbr5 splice variant of mslo1
Test: inside-out patch-clamp of channels expressed in Xenopus oocytes (GV shift dose response; also outward-current block, IC50 […]), supported by mutagenesis
Assay type: cell-based

COc1cc(NC(=O)[C@@H](N)CCCNC(=N)N)cc2ccccc12 [BC5]
EC50: 2.5 ± 0.3 µM
